# Measurements taken from publication PMC10700596 (Nature Communications, 2023).
# Tests used:
# EP4R = biological target: T1, EP4R (Homo sapiens, UniProt P35408); assay: PRESTO-Tango β-arrestin2 recruitment assay; format: cell-based; settings: agonist
# T1 construct: Tango fusion cassette (only 'tango' is printed); expressed in transfected cells; host or cells: HTLA cells (tTA-dependent luciferase reporter, β-arrestin2-TEV fusion)
# wild-type EP4R = wild-type EP4R (Homo sapiens, UniProt P35408); assay: cell-based
# Chain of wild-type EP4R (P35408 whole entry): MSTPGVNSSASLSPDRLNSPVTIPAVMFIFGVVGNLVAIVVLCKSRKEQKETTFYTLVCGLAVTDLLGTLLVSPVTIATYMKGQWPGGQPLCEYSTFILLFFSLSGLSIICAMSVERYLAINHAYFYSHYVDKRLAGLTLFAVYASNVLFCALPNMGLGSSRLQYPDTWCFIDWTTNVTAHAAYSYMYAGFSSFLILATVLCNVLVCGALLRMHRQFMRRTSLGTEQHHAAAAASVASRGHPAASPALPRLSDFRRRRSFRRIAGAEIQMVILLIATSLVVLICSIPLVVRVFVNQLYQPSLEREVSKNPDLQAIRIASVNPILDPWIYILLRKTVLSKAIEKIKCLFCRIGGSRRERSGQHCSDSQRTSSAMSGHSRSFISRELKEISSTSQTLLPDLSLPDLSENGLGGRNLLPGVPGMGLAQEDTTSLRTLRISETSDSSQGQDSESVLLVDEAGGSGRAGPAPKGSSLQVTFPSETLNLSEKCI
# EP4R R316A mutant = biological target: T2, EP4R R316A mutant (Homo sapiens, UniProt P35408, R316A); assay: BRET EP4R-arrestin interaction reporter assay, R316A mutant; format: cell-based; settings: agonist mode
# T2 construct: expressed in transfected cells; host or cells: HEK cells, transient
# T2 sequence (P35408 whole entry R316A): as the sequence (P35408 whole entry) above, with R316A counted along it
# Excerpt: three independent experiments. Source data are provided as a Source Data file.
# (1 picture or pasted object on this page, not shown here)
# T1 sequence (P35408 whole entry, the tested form may be a part): as the sequence (P35408 whole entry) above
smiles,measurement,setting,value
"CCCCC[C@H](O)/C=C/[C@H]1[C@H](O)CC(=O)[C@@H]1C/C=C\CCCC(=O)O [PGE2, prostaglandin E2, reference compound]",EC80 of PGE2,EP4R,8 nM
same,EC80 of PGE2,wild-type EP4R,8 nM
same,activation of R316A mutant receptor,EP4R R316A mutant,no longer
